# Reference: patent US12084522B2, “Peptides, combination of peptides, and cell based medicaments for use in immunotherapy against urinary bladder cancer and other cancers” (Immatics Biotechnologies GmbH, priority 2016, dated 2024)
# What was measured:
# [1] = system: CD8+ T cells from healthy HLA-A*02 donors; assay: In vitro immunogenicity: priming of CD8+ T cells with aAPCs loaded with peptide/MHC complexes and anti-CD28, pMHC multimer readout; assay type: cell-based, human; conditions: HLA-A*02 restricted peptides, positive wells among evaluable, Table 10B
# Source text: In order to obtain information regarding the immunogenicity of the TUMAPs of the present invention, the inventors performed investigations using an in vitro T-cell priming assay based on repeated stimulations of CD8+ T cells with artificial antigen presenting cells (aAPCs) loaded with peptide/MHC complexes and anti-CD28 antibody.
# In order to perform in vitro stimulations by artificial antigen presenting cells loaded with peptide-MHC complex (pMHC) and anti-CD28 antibody, the inventors first isolated CD8+ T cells from fresh HLA-A*02 leukapheresis products via positive selection using CD8 microbeads (Miltenyi Biotec, Bergisch-Gladbach, Germany) of healthy donors obtained from the University clinics Mannheim, Germany, after informed consent.
# PBMCs and isolated CD8+ lymphocytes were incubated in T-cell medium (TCM) until use consisting of RPMI-Glutamax (Invitrogen, Karlsruhe, Germany) supplemented with 10% heat inactivated human AB serum (PAN-Biotech, Aidenbach, Germany), 100 U/ml Penicillin/100 μg/ml Streptomycin (Cambrex, Cologne, Germany), 1 mM sodium pyruvate (CC Pro, Oberdorla, Germany), 20 μg/ml Gentamycin (Cambrex). 2.5 ng/ml IL-7 (PromoCell, Heidelberg, Germany) and 10 U/ml IL-2 (Novartis Pharma, Nürnberg, Germany) were also added to the TCM at this step.
# Generation of pMHC/anti-CD28 coated beads, T-cell stimulations and readout was performed in a highly defined in vitro system using four different pMHC molecules per stimulation condition and 8 different pMHC molecules per readout condition.
# The purified co-stimulatory mouse IgG2a anti human CD28 Ab 9.3 (Jung et al., 1987) was chemically biotinylated using Sulfo-N-hydroxysuccinimidobiotin as recommended by the manufacturer (Perbio, Bonn, Germany). Beads used were 5.6 μm diameter streptavidin coated polystyrene particles (Bangs Laboratories, Illinois, USA).
# 800.000 beads/200 μl were coated in 96-well plates in the presence of 4×12.5 ng different biotin-pMHC, washed and 600 ng biotin anti-CD28 were added subsequently in a volume of 200 μl. Stimulations were initiated in 96-well plates by co-incubating 1×10^6 CD8+ T cells with 2×10^5 washed coated beads in 200 μl TCM supplemented with 5 ng/ml IL-12 (PromoCell) for 3 days at 37° C. Half of the medium was then exchanged by fresh TCM supplemented with 80 U/ml IL-2 and incubating was continued for 4 days at 37° C. This stimulation cycle was performed for a total of three times. For the pMHC multimer readout using 8 different pMHC molecules per condition, a two-dimensional combinatorial coding approach was used as previously described (Andersen et al., 2012) with minor modifications encompassing coupling to 5 different fluorochromes. Finally, multimeric analyses were performed by staining the cells with Live/dead near IR dye (Invitrogen, Karlsruhe, Germany), CD8-FITC antibody clone SK1 (BD, Heidelberg, Germany) and fluorescent pMHC multimers. For analysis, a BD LSRII SORP cytometer equipped with appropriate lasers and filters was used. Peptide specific cells were calculated as percentage of total CD8+ cells. Evaluation of multimeric analysis was done using the FlowJo software (Tree Star, Oregon, USA). In vitro priming of specific multimer+CD8+ lymphocytes was detected by comparing to negative control stimulations.
# HLA-A*02:01 = HLA-A*02:01 (Homo sapiens, UniProt P04439, D140Y/D185E/D98H/E176V/E277Q/G131W/G231S/I119V/I121R/I166T/I218V/L300P/L318F/N151K/N90K/P208A/P217A/Q86G/Q94H/R138H/R169H/T345S); assay: MHC binding assay (UV-ligand exchange, β2m ELISA, peptide exchange yield); conditions: binding to HLA-A*02:01 ranged by peptide exchange yield (UV-ligand exchange, β2m ELISA)
Substance,Peptide exchange (HLA-A*02:01),Wells positive [%] [1]
30 (ILDISRSEV; listed as Homo sapiens) [compound 30],+++ (>50 = +++),++++ (>=70% = ++++)
41 (FLDDGNQMLL; listed as Homo sapiens) [compound 41],++++ (>75% = ++++),+ (<20% = +)
50 (VLANRVAVV; listed as Homo sapiens) [compound 50],+++ (>50 = +++),++++ (>=70% = ++++)
53 (ILVQVIPVV; listed as Homo sapiens) [compound 53],+++ (>50 = +++),++ (20%-49% = ++)
57 (GLAHFVNEI; listed as Homo sapiens) [compound 57],++++ (>75% = ++++),+ (<20% = +)
59 (WLSTSIPEA; listed as Homo sapiens) [compound 59],++++ (>75% = ++++),+ (<20% = +)
60 (SLSDVRVIV; listed as Homo sapiens) [compound 60],++++ (>75% = ++++),+ (<20% = +)
75 (RVISSVISV; listed as Homo sapiens) [compound 75],+++ (>50 = +++),++ (20%-49% = ++)
111 (LLDVTPKAV; listed as Homo sapiens) [compound 111],+++ (>50 = +++),+++ (50%-69% = +++)

# Second part, led by results:
Peptide exchange (HLA-A*02:01),Substance,Wells positive [%] [1]
+++ (>50 = +++),114 (IITKDLFQV; listed as Homo sapiens) [compound 114],+ (<20% = +)
++++ (>75% = ++++),126 (SLLRVGWSV; listed as Homo sapiens) [compound 126],++ (20%-49% = ++)
++++ (>75% = ++++),146 (YLARIQGFQV; listed as Homo sapiens) [compound 146],++ (20%-49% = ++)
++++ (>75% = ++++),148 (TLGVIPESV; listed as Homo sapiens) [compound 148],+ (<20% = +)
